Here are results for 1 molecule from ChEMBL document CHEMBL5543153, “Discovery of a Potent Dual Son of Sevenless 1 (SOS1) and Epidermal Growth Factor Receptor (EGFR) Inhibitor for the Treatment of Prostate Cancer” (J Med Chem, 2024).

Data set [1] concerns PC-3. Put plainly: Induction of cell cycle arrest in human PC-3 cells assessed as accumulation of cells at G1 phase at 2.5 uM by PI staining based flow cytometry (reference value: 75.66%). In kind it is functional.
The test system of data set [2] is PC-3. Put plainly: Induction of apoptosis in human PC-3 cells assessed as necrotic cells at 12.5 uM by Annexin V-FITC staining based flow cytometry (reference value: 0.48%). The class given is functional. A general note: Flow cytometry measures light scatter and fluorescence of single cells or particles in a stream.
The test system of data set [3] is HUVEC. Put plainly: Antiangiogenic activity in HUVEC cells assessed as reduction in tube master junction at 0.5 to 12.5 uM incubated for 8 hrs by matrigel based microscopic analysis. The class given is functional, cell-based. The note with it: Homo sapiens, dose 0.5-12.5 µM.
Data set [4] deals with PC-3. Put plainly: Antiproliferative activity against human PC-3 cells transfected with SOS1 shRNA assessed as inhibition of cell growth incubated for 72 hrs by MTT assay. In kind it is functional, cell-based. The note with it: PC-3, 72 h.
Data set [5] deals with HUVEC. Put plainly: Antiangiogenic activity in HUVEC cells assessed as reduction of node at 0.5 to 12.5 uM incubated for 8 hrs by matrigel based microscopic analysis. The note with it: Homo sapiens, dose 0.5-12.5 µM. In kind it is functional, cell-based.
Data set [6] deals with PC-3. Put plainly: Induction of apoptosis in human PC-3 cells assessed as necrotic cells at 2.5 uM by Annexin V-FITC staining based flow cytometry (reference value: 0.48%). The class given is functional.
The test system of data set [7] is PC-3. Put plainly: Induction of apoptosis in human PC-3 cells assessed as upregulation of cleaved PARP expression by Western blotting analysis. The class given is functional, cell-based. A general note: A western blot detects proteins with antibodies after separation by electrophoresis.
Data set [8] deals with PC-3. Put plainly: cells. The class given is functional, cell-based. The note with it: Homo sapiens, PC-3, 72 h.
Description: Antiproliferative activity against human PC-3 cells assessed as inhibition of cell growth incubated for 72 hrs by MTT assay
For data set [9], the system named is NCI-H358. Put plainly: Antiproliferative activity against human NCI-H358 cells harboring KRAS G12C mutant assessed as inhibition of cell growth incubated for 72 hrs by MTT assay. In kind it is functional, cell-based. The note with it: NCI-H358, 72 h. On the technique in general: Tetrazolium assays rely on reduction of a dye to a coloured formazan, in cell work by metabolically active cells.

Data set [10] concerns PC-3. Put plainly: Induction of apoptosis in human PC-3 cells assessed as late apoptotic cells at 0.5 uM by Annexin V-FITC staining based flow cytometry (reference value: 1.93%). The class given is functional.
Data set [11] addresses T1, Son of sevenless homolog 1 (Homo sapiens) (UniProt Q07889).
T1 sequence (whole entry): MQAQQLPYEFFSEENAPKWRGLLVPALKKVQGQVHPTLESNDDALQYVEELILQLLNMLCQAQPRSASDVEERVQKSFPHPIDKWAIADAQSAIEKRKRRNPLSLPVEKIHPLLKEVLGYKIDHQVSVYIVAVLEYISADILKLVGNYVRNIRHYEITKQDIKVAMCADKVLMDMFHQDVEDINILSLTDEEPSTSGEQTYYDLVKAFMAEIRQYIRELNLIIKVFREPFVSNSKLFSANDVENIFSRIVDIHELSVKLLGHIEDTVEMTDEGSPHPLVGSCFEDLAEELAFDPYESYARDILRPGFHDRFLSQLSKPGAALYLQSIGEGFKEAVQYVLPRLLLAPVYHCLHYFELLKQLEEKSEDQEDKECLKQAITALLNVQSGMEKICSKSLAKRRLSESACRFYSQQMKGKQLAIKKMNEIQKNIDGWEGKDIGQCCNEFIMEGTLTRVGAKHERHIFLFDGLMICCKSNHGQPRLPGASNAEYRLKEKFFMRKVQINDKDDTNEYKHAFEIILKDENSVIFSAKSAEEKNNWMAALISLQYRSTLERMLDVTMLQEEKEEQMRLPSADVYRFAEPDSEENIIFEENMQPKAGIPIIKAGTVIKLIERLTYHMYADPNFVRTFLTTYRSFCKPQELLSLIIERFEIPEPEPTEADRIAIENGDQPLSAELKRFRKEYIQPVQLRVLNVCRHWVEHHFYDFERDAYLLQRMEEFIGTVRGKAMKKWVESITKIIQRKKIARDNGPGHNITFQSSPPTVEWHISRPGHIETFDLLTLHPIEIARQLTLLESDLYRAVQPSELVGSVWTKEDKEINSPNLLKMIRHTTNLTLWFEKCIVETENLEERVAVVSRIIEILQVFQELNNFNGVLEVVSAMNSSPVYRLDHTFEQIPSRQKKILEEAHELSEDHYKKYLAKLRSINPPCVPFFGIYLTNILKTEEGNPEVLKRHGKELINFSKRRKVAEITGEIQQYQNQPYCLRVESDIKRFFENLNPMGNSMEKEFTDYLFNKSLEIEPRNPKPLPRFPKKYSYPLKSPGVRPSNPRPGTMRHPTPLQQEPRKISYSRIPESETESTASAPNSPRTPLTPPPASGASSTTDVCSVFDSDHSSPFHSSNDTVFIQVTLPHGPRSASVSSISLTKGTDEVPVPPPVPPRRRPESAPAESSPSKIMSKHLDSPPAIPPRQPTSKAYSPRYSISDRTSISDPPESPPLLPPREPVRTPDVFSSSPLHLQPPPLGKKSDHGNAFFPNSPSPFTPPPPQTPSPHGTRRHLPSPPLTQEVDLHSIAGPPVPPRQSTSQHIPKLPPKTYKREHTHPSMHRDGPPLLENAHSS
Put plainly: Inhibition of SOS1 in human PC-3 cells assessed as downregulation of AKT phosphorylation at 0.5 uM incubated for 15 mins by Western blotting analysis. In kind it is cell-based.

The test system of data set [12] is PC-3. Put plainly: Induction of cell cycle arrest in human PC-3 cells assessed as accumulation of cells at G2 phase at 12.5 uM by PI staining based flow cytometry (reference value: 7.75%). The class given is functional.
Data set [13] addresses T2, Epidermal growth factor receptor (Homo sapiens, UniProt P00533). Put plainly: Inhibition of EGFR in human PC-3 cells assessed as downregulation of AKT phosphorylation at 2.5 uM incubated for 15 mins by Western blotting analysis. In kind it is cell-based.
The test system of data set [14] is PC-3. Put plainly: Induction of apoptosis in human PC-3 cells assessed as early apoptotic cells at 0.5 uM by Annexin V-FITC staining based flow cytometry (reference value: 2.64%). In kind it is functional.
Data set [15] in a line: Toxicity in BALB/c mouse xenografted with human PC-3 cells assessed as change in creatinine level at 5 mg/kg,ip administrated once every 4 days for 24 days by automatic biochemical analyzer. In kind it is organism-based. The following applies: in vivo, 576 h, time 24 day.
The nature of data set [16]: Toxicity in BALB/c mouse xenografted with human PC-3 cells assessed as change in AST level at 5 mg/kg,ip administrated once every 4 days for 24 days by automatic biochemical analyzer. In kind it is organism-based. The note with it: in vivo, 576 h, time 24 day.
Data set [17] relates to PC-3. Put plainly: Induction of cell cycle arrest in human PC-3 cells assessed as accumulation of cells at G1 phase at 12.5 uM by PI staining based flow cytometry (reference value: 75.66%). In kind it is functional.
A short description of data set [18]: Toxicity in BALB/c mouse xenografted with human PC-3 cells assessed as lung pathological change at 5 mg/kg,ip administrated once every 4 days for 24 days by hematoxylin and eosin staining based analysis. In kind it is organism-based. The following applies: in vivo, 576 h, time 24 day.
Data set [19] concerns the target T2, Epidermal growth factor receptor. Put plainly: Inhibition of EGFR (unknown origin) using ultra ULight GT peptide as substrate at 10 uM incubated for 2 hrs relative to control.
For data set [20], the system named is PC-3. Put plainly: Antitumor activity against human PC-3 cells xenografted in BALB/c mouse assessed as reduction in tumor weight at 20 mg/kg,ip administrated once every 4 days for 24 days. In kind it is functional, organism-based. The note with it: time 24.0 day.
The test system of data set [21] is PC-3. Put plainly: Antiproliferative activity against human PC-3 cells transfected with SOS1 and EGFR shRNA assessed as inhibition of cell growth incubated for 72 hrs by MTT assay. The note with it: PC-3, 72 h. The class given is functional, cell-based.
In data set [22] the test system is PC-3. Put plainly: Induction of apoptosis in human PC-3 cells assessed as early apoptotic cells at 2.5 uM by Annexin V-FITC staining based flow cytometry (reference value: 2.64%). In kind it is functional.

Molecules are shown by their SMILES. The source made the active and inactive calls. The rule behind the calls is not given here.

T2 sequence (P00533 whole entry): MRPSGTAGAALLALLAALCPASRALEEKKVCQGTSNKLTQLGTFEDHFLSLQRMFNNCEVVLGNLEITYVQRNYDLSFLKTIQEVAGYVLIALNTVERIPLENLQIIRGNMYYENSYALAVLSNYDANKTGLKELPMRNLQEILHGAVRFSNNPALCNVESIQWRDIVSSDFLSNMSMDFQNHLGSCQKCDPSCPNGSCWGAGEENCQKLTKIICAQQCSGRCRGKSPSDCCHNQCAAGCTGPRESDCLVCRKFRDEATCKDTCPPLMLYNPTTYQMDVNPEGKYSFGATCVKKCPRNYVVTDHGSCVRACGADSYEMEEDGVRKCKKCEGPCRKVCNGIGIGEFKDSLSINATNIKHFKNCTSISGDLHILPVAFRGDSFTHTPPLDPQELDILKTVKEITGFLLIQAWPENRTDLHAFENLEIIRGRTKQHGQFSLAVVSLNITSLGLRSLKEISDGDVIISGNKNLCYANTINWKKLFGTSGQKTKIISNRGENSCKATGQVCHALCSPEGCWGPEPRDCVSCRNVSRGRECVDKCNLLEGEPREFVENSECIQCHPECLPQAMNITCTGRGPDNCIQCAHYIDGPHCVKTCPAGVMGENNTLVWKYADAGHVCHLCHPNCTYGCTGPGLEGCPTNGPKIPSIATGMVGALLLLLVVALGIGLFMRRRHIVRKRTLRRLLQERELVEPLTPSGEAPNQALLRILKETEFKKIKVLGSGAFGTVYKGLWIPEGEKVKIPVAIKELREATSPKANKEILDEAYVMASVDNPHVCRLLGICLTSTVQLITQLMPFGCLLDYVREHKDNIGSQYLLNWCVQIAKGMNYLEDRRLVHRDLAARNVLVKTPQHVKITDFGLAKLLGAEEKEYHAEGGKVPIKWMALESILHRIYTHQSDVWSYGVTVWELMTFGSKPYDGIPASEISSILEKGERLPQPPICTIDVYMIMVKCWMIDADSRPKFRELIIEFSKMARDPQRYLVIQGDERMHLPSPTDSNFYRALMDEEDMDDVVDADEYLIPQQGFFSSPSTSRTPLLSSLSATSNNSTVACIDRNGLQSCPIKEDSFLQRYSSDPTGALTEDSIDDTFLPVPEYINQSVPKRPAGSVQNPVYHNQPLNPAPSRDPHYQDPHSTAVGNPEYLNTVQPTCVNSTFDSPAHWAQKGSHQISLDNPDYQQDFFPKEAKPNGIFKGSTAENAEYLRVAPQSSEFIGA

`COc1cc2ncnc(N[C@H](C)c3cccc(F)c3)c2cc1OC1CCOCC1`: the Activity in data set [1] was 81.85%; in data set [2], 0.15%; in data set [6], 0.57%; in data set [7], “Dose-Dependent Effect”; in data set [10] it was 2.74%; in data set [12], 5.95%. The Activity in data set [14] was 11.7%; in data set [15] it was “Non-Toxic”; in data set [16], “Non-Toxic”; in data set [17] it was 87.38%; in data set [18], “Toxic”; in [22] it was 17%. Also, the result in data set [3], in [5] and in data set [20] was Active. The half-inhibitory concentration (IC50) (in general, the midpoint of a concentration-inhibition curve) is 3.92 µM in [4], 0.45 µM in [8], 0.55 µM in data set [9] and greater than 10 µM in data set [21]. For the same molecule, the inhibition entry in data set [11] and in data set [13] was “Active” each time. For the same molecule, in data set [19], the inhibition (in general, how much of the control response was suppressed) was 100%.
